Reference: patent publication US10597388B2, “Pyridazinone herbicides” (FMC CORPORATION, priority 2014, dated 2020)

How the values were obtained:
Experiment in all cases: Test D controlled growth environment herbicide test, pre- and postemergence
Type in all cases: in vivo
[1] = tested on: bromegrass, downy (downy bromegrass, Bromus tectorum)
How it was run: (§1)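 Species sown in silt loam and sprayed preemergence, or grown in peat-based medium to 2–18 cm (1- to 4-leaf stage) and sprayed postemergence, with compounds in non-phytotoxic solvent plus surfactant. Visual injury scored versus controls after 14–21 d in a controlled environment, 0 (no effect) to 100 (complete control).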

[2] = tested on: wheat, spring (spring wheat, Triticum aestivum)
How it was run: as §1

[3] = tested on: foxtail, green (green foxtail, Setaria viridis)
How it was run: as §1

[4] = tested on: barley, winter (winter barley, Hordeum vulgare)
How it was run: as §1

[5] = tested on: deadnettle (henbit deadnettle, Lamium amplexicaule)
How it was run: as §1

[6] = tested on: chamomile (scentless chamomile, Matricaria inodora)
How it was run: as §1

[7] = tested on: blackgrass (Alopecurus myosuroides)
How it was run: as §1

[8] = tested on: ryegrass, Italian (Italian ryegrass, Lolium multiflorum)
How it was run: as §1

[9] = tested on: chickweed (common chickweed, Stellaria media)
How it was run: as §1

[10] = tested on: lambsquarters (Chenopodium album)
How it was run: as §1

[11] = tested on: barley, spring (spring barley, Hordeum vulgare)
How it was run: as §1

[12] = tested on: wheat, winter (winter wheat, Triticum aestivum)
How it was run: as §1

[13] = tested on: field poppy (Papaver rhoeas)
How it was run: as §1

[14] = Postemergence, 31 g ai/ha, scale 0 to 100 (0 no effect, 100 complete control)
[15] = Postemergence, 125 g ai/ha, visual rating on scale 0 (no effect) to 100 (complete control), 14 to 21 d
[16] = Postemergence, 250 g ai/ha, scale 0 to 100 (0 no effect, 100 complete control)
[17] = Preemergence, 62 g ai/ha, scale 0 to 100 (0 no effect, 100 complete control)
[18] = Preemergence, 125 g ai/ha, scale 0 to 100 (0 no effect, 100 complete control)
[19] = Preemergence, 250 g ai/ha, scale 0 to 100 (0 no effect, 100 complete control)
[20] = postemergence, 62 g ai/ha, scale 0 to 100, 0 no effect, 100 complete control

CCOC(=O)Oc1c(C)nn(C)c(=O)c1-c1c(C)ccc2ccccc12 [Compound 73]
Bromegrass, Downy plant response rating [1, 14]: 25 | Plant response rating, Bromegrass, Downy [1, 15]: 70 | Plant response rating, Bromegrass, Downy [1, 16]: 85 | Plant response rating (scale of 0 to 100), Bromegrass, Downy ([1]; Preemergence, 31 g ai/ha): 20 | Plant response rating, Bromegrass, Downy [1, 17]: 40 | Plant response rating, Bromegrass, Downy [1, 18]: 50 | Plant response rating, Bromegrass, Downy [1, 19]: 90 | Plant response rating, Bromegrass, Downy [1, 20]: 55 | Wheat, Spring plant response rating [2, 14]: 45 | Plant response rating, Wheat, Spring [2, 15]: 70 | Plant response rating, Wheat, Spring [2, 16]: 85 | Plant response rating (scale of 0 to 100), Wheat, Spring ([2]; Preemergence, 31 g ai/ha): 15 | Plant response rating, Wheat, Spring [2, 17]: 55 | Plant response rating, Wheat, Spring [2, 18]: 70 | Plant response rating, Wheat, Spring [2, 19]: 85 | Plant response rating, Wheat, Spring [2, 20]: 55 | Foxtail, Green plant response rating [3, 14]: 65 | Plant response rating, Foxtail, Green [3, 15]: 75 | Plant response rating, Foxtail, Green [3, 16]: 80 | Plant response rating (scale of 0 to 100), Foxtail, Green ([3]; Preemergence, 31 g ai/ha): 15 | Plant response rating, Foxtail, Green [3, 17]: 20 | Plant response rating, Foxtail, Green [3, 18]: 50 | Plant response rating, Foxtail, Green [3, 19]: 100 | Plant response rating, Foxtail, Green [3, 20]: 70 | Barley, Winter plant response rating [4, 14]: 15 | Plant response rating, Barley, Winter [4, 15]: 20 | Plant response rating, Barley, Winter [4, 16]: 35 | Plant response rating (scale of 0 to 100), Barley, Winter ([4]; Preemergence, 31 g ai/ha): 5 | Plant response rating, Barley, Winter [4, 17]: 40 | Plant response rating, Barley, Winter [4, 18]: 60 | Plant response rating, Barley, Winter [4, 19]: 75 | Plant response rating, Barley, Winter [4, 20]: 15 | Deadnettle plant response rating [5, 14]: 75 | Plant response rating, Deadnettle [5, 15]: 100 | Plant response rating, Deadnettle [5, 16]: 100 | Plant response rating (scale of 0 to 100), Deadnettle ([5]; Preemergence, 31 g ai/ha): 0 | Plant response rating, Deadnettle [5, 17]: 0 | Plant response rating, Deadnettle [5, 18]: 70 | Plant response rating, Deadnettle [5, 19]: 100 | Plant response rating, Deadnettle [5, 20]: 90 | Chamomile plant response rating [6, 14]: 70 | Plant response rating, Chamomile [6, 15]: 90 | Plant response rating, Chamomile [6, 16]: 100 | Plant response rating, Chamomile [6, 20]: 85 | Blackgrass plant response rating [7, 14]: 65 | Plant response rating, Blackgrass [7, 15]: 80 | Plant response rating, Blackgrass [7, 16]: 90 | Plant response rating (scale of 0 to 100), Blackgrass ([7]; Preemergence, 31 g ai/ha): 50 | Plant response rating, Blackgrass [7, 17]: 60 | Plant response rating, Blackgrass [7, 18]: 80 | Plant response rating, Blackgrass [7, 19]: 85 | Plant response rating, Blackgrass [7, 20]: 70 | Ryegrass, Italian plant response rating [8, 14]: 70 | Plant response rating, Ryegrass, Italian [8, 15]: 95 | Plant response rating, Ryegrass, Italian [8, 16]: 98 | Plant response rating (scale of 0 to 100), Ryegrass, Italian ([8]; Preemergence, 31 g ai/ha): 95 | Plant response rating, Ryegrass, Italian [8, 17]: 100 | Plant response rating, Ryegrass, Italian [8, 18]: 100 | Plant response rating, Ryegrass, Italian [8, 19]: 100 | Plant response rating, Ryegrass, Italian [8, 20]: 85 | Chickweed plant response rating [9, 14]: 90 | Plant response rating, Chickweed [9, 15]: 100 | Plant response rating, Chickweed [9, 16]: 100 | Plant response rating (scale of 0 to 100), Chickweed ([9]; Preemergence, 31 g ai/ha): 95 | Plant response rating, Chickweed [9, 17]: 90 | Plant response rating, Chickweed [9, 18]: 100 | Plant response rating, Chickweed [9, 19]: 100 | Plant response rating, Chickweed [9, 20]: 95 | Lambsquarters plant response rating [10, 14]: 95 | Plant response rating, Lambsquarters [10, 15]: 100 | Plant response rating, Lambsquarters [10, 16]: 100 | Plant response rating (scale of 0 to 100), Lambsquarters ([10]; Preemergence, 31 g ai/ha): 95 | Plant response rating, Lambsquarters [10, 17]: 95 | Plant response rating, Lambsquarters [10, 18]: 95 | Plant response rating, Lambsquarters [10, 19]: 100 | Plant response rating, Lambsquarters [10, 20]: 95 | Barley, Spring plant response rating [11, 14]: 10 | Plant response rating, Barley, Spring [11, 15]: 30 | Plant response rating, Barley, Spring [11, 16]: 40 | Plant response rating (scale of 0 to 100), Barley, Spring ([11]; Preemergence, 31 g ai/ha): 0 | Plant response rating, Barley, Spring [11, 17]: 10 | Plant response rating, Barley, Spring [11, 18]: 0 | Plant response rating, Barley, Spring [11, 19]: 60 | Plant response rating, Barley, Spring [11, 20]: 25 | Wheat, Winter plant response rating [12, 14]: 25 | Plant response rating, Wheat, Winter [12, 15]: 65 | Plant response rating, Wheat, Winter [12, 16]: 75 | Plant response rating (scale of 0 to 100), Wheat, Winter ([12]; Preemergence, 31 g ai/ha): 15 | Plant response rating, Wheat, Winter [12, 17]: 40 | Plant response rating, Wheat, Winter [12, 18]: 50 | Plant response rating, Wheat, Winter [12, 19]: 75 | Plant response rating, Wheat, Winter [12, 20]: 35 | Field Poppy plant response rating [13, 14]: 75 | Plant response rating, Field Poppy [13, 15]: 100 | Plant response rating, Field Poppy [13, 16]: 100 | Plant response rating (scale of 0 to 100), Field Poppy ([13]; Preemergence, 31 g ai/ha): 70 | Plant response rating, Field Poppy [13, 17]: 100 | Plant response rating, Field Poppy [13, 18]: 100 | Plant response rating, Field Poppy [13, 19]: 100 | Plant response rating, Field Poppy [13, 20]: 100
